Results: publication PMC7854658, “Structural basis for ligand recognition of the neuropeptide Y Y2 receptor” (Nature Communications, 2021)
Substitutions are numbered along the chain they refer to. “And” between values parts separate entries of the source, which are not always exact repeats. Equal values may be shown once.

Key:
Type in all cases: cell-based
wild-type Y2R = target: T1, wild-type Y2R (Homo sapiens, UniProt P49146); test: NPY-induced IP accumulation (IP-One) with or without 1 μM antagonist; settings: WT
T1 construct: expressed in transfected cells; host or cells: HEK293
T1 sequence (P49146 1-381): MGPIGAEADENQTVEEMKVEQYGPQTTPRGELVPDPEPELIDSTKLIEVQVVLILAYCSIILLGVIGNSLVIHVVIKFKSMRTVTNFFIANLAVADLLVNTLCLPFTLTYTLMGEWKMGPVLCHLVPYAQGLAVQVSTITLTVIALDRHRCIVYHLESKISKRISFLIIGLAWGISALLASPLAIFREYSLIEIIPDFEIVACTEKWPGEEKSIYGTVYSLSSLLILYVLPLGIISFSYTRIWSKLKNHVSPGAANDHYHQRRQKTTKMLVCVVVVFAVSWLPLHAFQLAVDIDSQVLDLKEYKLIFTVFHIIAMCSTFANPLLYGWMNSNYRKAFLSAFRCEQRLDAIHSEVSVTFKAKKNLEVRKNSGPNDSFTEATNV
Description: (§1) The plasmid hY2R_eYFP_pVitro2 encoding the WT Y2R and a fluorophore for investigating the receptor localization was used as template for the generation of receptor point mutations as previously described. Mutagenesis PCR was performed using the Phusion High-Fidelity Polymerase (Thermo Fisher Scientific, Waltham, MA, USA). […] The preparations of the plasmid DNA were performed using the Wizard plus Mini or Midi DNA purification kit (Promega, Madison, WI, USA).
(§2) To determine the contribution of residues to antagonist binding, IP-One accumulation assays (Cisbio, Codolet, France) were performed. HEK293 cells were seeded into six-well plates and transiently cotransfected with 3200 ng of receptor plasmid DNA and 800 ng of the chimeric G protein (Gα∆6qi4myr) to redirect the Gαi signaling pathway to the Gαq phospholipase C pathway. Transient transfection was carried out using Metafectene as transfection reagent according to the manufacturer’s protocol (Biontex, Munich, Germany) over night. The cells were then reseeded into white 384-well microplates (Greiner Bio-One, Kremsmünster, Austria) at a density of 15,000 cells per well and grown for additional 24 h.
(§3) All dilutions were performed in HBSS containing 20 mM LiCl (stimulation buffer) and DMSO with a final concentration of 0.01%.
(§4) To determine the amount of cellular IPs, the FRET acceptor (IP1-d2) and the FRET donor (anti-IP1-Cryptate) were reconstituted and diluted in lysis and detection buffer (1:20) as described in the manufacturer’s protocol. Three microliters of both solutions were added, and the cells were incubated on a tumbler for 60 min.

Y2R mutant F307^7.35E = target: T2, Y2R mutant F307^7.35E (Homo sapiens, UniProt P49146, F307E); test: NPY-induced IP accumulation (IP-One), mutant; settings: 1 μM antagonist, source data Fig. 3
T2 construct: expressed in transfected cells; host or cells: HEK293
T2 sequence (P49146 whole entry F307E): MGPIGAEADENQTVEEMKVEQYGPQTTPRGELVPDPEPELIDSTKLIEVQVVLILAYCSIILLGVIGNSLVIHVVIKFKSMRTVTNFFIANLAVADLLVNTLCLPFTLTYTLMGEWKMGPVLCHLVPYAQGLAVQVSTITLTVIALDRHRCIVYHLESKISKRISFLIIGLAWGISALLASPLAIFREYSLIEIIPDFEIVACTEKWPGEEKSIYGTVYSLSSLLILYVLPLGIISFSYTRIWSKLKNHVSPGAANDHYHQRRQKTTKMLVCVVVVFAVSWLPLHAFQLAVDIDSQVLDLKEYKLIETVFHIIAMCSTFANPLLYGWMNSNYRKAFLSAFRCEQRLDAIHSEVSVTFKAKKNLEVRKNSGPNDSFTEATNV
Description: as §1, §2, §3, §4

Y2R mutant S220^5.39A = target: T3, Y2R mutant S220^5.39A (Homo sapiens, UniProt P49146, S220A); test: NPY-induced IP accumulation (IP-One), mutant
T3 construct: expressed in transfected cells; host or cells: HEK293
T3 sequence (P49146 1-381 S220A): T1 sequence (P49146 1-381) with S220A
Description: as §1, §2, §3, §4

Y2R mutant T308^7.36A = target: T4, Y2R mutant T308^7.36A (Homo sapiens, UniProt P49146, T308A); test: NPY-induced IP accumulation (IP-One), mutant
T4 construct: expressed in transfected cells; host or cells: HEK293
T4 sequence (P49146 1-381 T308A): T1 sequence (P49146 1-381) with T308A
Description: as §1, §2, §3, §4

Y2R mutant V126^3.28A = target: T5, Y2R mutant V126^3.28A (Homo sapiens, UniProt P49146, V126A); test: NPY-induced IP accumulation (IP-One), mutant
T5 construct: expressed in transfected cells; host or cells: HEK293
T5 sequence (P49146 1-381 V126A): T1 sequence (P49146 1-381) with V126A
Description: as §1, §2, §3, §4

Y2R mutant Y219^5.38A = target: T6, Y2R mutant Y219^5.38A (Homo sapiens, UniProt P49146, Y219A); test: NPY-induced IP accumulation (IP-One), mutant; settings: 1 μM antagonist, source data Fig. 3
T6 construct: expressed in transfected cells; host or cells: HEK293
T6 sequence (P49146 whole entry Y219A): as the sequence (P49146 whole entry F307E) above, with Y219A, E307F counted along it
Description: as §1, §2, §3, §4

Y2R mutant Y228^5.47A = target: T7, Y2R mutant Y228^5.47A (Homo sapiens, UniProt P49146, Y228A); test: NPY-induced IP accumulation (IP-One), mutant; settings: 1 μM antagonist, source data Fig. 3
T7 construct: expressed in transfected cells; host or cells: HEK293
T7 sequence (P49146 whole entry Y228A): as the sequence (P49146 whole entry F307E) above, with Y228A, E307F counted along it
Description: as §1, §2, §3, §4

[1] = 1 μM antagonist, source data Fig. 3
[2] = EC50(NPY + 1 μM antagonist)/EC50(NPY)
[3] = EC50 ratio (WT)/EC50 ratio (mutant)

Compound: N=C(N)NCCC[C@H](NC(=O)CC1(CC(=O)N2CCN(C3c4ccccc4NC(=O)c4ccccc43)CC2)CCCC1)C(=O)NCCn1c(=O)n(-c2ccccc2)n(-c2ccccc2)c1=O (stereo partly shown) [BIIE0246]
- Average EC50 ratio (wild-type Y2R; [1]): 157.4
- EC50 ratio (individual experiments) (wild-type Y2R; [1]): 143.5 and 171.2
- EC50 ratio (wild-type Y2R; [2]): 144 and 171 and 159
- Ratio change (fold) (wild-type Y2R; [3]): 1 fold
- Average EC50 ratio (Y2R mutant F307^7.35E): 232.3
- EC50 ratio (individual experiments) (Y2R mutant F307^7.35E): 75.3 and 389.3
- Average EC50 ratio (Y2R mutant S220^5.39A; [1]): 502.4
- EC50 ratio (individual experiments) (Y2R mutant S220^5.39A; [1]): 515.1 and 489.7
- EC50 ratio (Y2R mutant S220^5.39A; [2]): 515 and 490
- Ratio change (fold) (Y2R mutant S220^5.39A; [3]): 0.3 fold
- Average EC50 ratio (Y2R mutant T308^7.36A; [1]): 233.8
- EC50 ratio (individual experiments) (Y2R mutant T308^7.36A; [1]): 248.2 and 219.5
- EC50 ratio (Y2R mutant T308^7.36A; [2]): 248 and 219
- Ratio change (fold) (Y2R mutant T308^7.36A; [3]): 0.6 fold and 0.7 fold
- Average EC50 ratio (Y2R mutant V126^3.28A; [1]): 302.6
- EC50 ratio (individual experiments) (Y2R mutant V126^3.28A; [1]): 285.2 and 320.0
- EC50 ratio (Y2R mutant V126^3.28A; [2]): 285 and 320
- Ratio change (fold) (Y2R mutant V126^3.28A; [3]): 0.6 fold and 0.5 fold
- Average EC50 ratio (Y2R mutant Y219^5.38A): 97.9
- EC50 ratio (individual experiments) (Y2R mutant Y219^5.38A): 48.6 and 147.2
- Average EC50 ratio (Y2R mutant Y228^5.47A): 18.8
- EC50 ratio (individual experiments) (Y2R mutant Y228^5.47A): 10.5 and 27.0
